The values that follow come from patent US7781474B2, “Inhibitors of hepatitis C virus replication” (InterMune, Inc., priority 2006, dated 2010).

Structures can show the parent of a compound that is named as a salt. Where only a bound is given, the exact number is not on record here.

This assay has as its target T1, NS3/NS4A-2 (Hepatitis C virus genotype 1a, UniProt P27958).
T1 construct: Recombinant E. coli or Baculovirus full-length NS3 was diluted to 3.33 μM with assay buffer; made in house; host or cells: E. coli or Baculovirus (insect cells)
Nature of the assay: NS3 inhibition assay (NS3-NS4 protease assay). Conditions: recombinant full-length NS3 (E. coli or Baculovirus) complexed with NS4A-2; RETS1 substrate. The format is biochemical, hepatitis C virus (HCV). The procedure:
NS3 Complex Formation with NS4A-2.
Recombinant E. coli or Baculovirus full-length NS3 was diluted to 3.33 μM with assay buffer and transferred material to an eppendorf tube and place in water bath in 4° C. refrigerator. The appropriate amount of NS4A-2 to 8.3 mM in assay buffer was added to equal the volume of NS3 in step 2.1.1 (conversion factor—3.8 mg/272 μL assay buffer). The material was transferred to an eppendorf tube and place in water bath in 4° C. refrigerator.
After equilibration to 4° C., equal volumes of NS3 and NS4A-2 solutions were combined in an eppendorf tube, mix gently with a manual pipettor, and incubate mixture for 15 minutes in the 4° C. water bath. Final concentrations in the mixture are 1.67 μM NS3, 4.15 mM NS4A-2 (2485-fold molar excess NS4A-2).
After 15 minutes at 4° C., the NS3/NS4A-2 eppendorf tube was removed and place it in a room temperature water bath for 10 minutes. NS3/NS4A-2 was alliquoted at appropriate volumes and store at −80° C. (E. coli NS3 run at 2 nM in assay, aliquot at 25 μL. BV NS3 run at 3 nM in assay, aliquot at 30 μL).
Sample compounds were dissolved to 10 mM in DMSO then diluted to 2.5 mM (1:4) in DMSO. Typically, compounds were added to an assay plate at 2.5 mM concentration, yielding upon dilution a starting concentration of 50 microM in the assay inhibition curve. Compounds were serial diluted in assay buffer to provide test solutions at lower concentrations.
The E. coli. NS3/NS4A-2 was diluted to 4 nM NS3 (1:417.5 of 1.67 μM stock−18 μL 1.67 μM stock+7497 μL assay buffer). The BV NS3/NS4A-2 was diluted to 6 nM NS3 (1:278.3 of 1.67 μM stock−24 μL 1.67 μM stock+6655 μL assay buffer). Using the manual multichannel pipettor, careful not to introduce bubbles into the plate, add 50 μL assay buffer to wells A01-H01 of a black Costar 96-well polypropylene storage plate.
Using the manual multichannel pipettor, careful not to introduce bubbles into the plate, add 50 μL of diluted NS3/NS4A-2 from step 2.2.6 to wells A02-H12 of plate in step 2.2.7. Using the manual multichannel pipettor, careful not to introduce bubbles into the plate, transfer 25 μL of the wells in drug dilution plate in step 2.2.5 to corresponding wells in assay plate in step 2.2.8. Change tips on multichannel pipettor for each row of compounds transferred. Using the manual multichannel pipettor, careful not to introduce bubbles into the plate, mix the wells from the assay plate in step 2.2.9 by aspirating and dispensing 35 μL of the 75 μL in each well five times. Change tips on multichannel pipettor for each row of wells mixed. Cover plate with a polystyrene plate lid and pre-incubate the plate from step 2.2.10 containing NS3 protease and sample compounds 10 minutes at room temperature. While plate from step 2.2.11 is pre-incubating, dilute RETS1 substrate in a 15 mL polypropylene centrifuge tube. Dilute RETS1 substrate to 8 μM (1:80.75 of 646 μM stock−65 μL 646 μM stock+5184 μL assay buffer).
After the plate in step is done pre-incubating, and using the manual multichannel, add 25 μL of substrate to all wells on the plate. Quickly mix the plate as in step 2.2.10, mixing 65 μL of the 100 μL in the wells.
Read the plate in kinetic mode on the Molecular Devices SpectraMax Gemini XS plate reader. Reader settings: Read time: 30 minutes, Interval: 36 seconds, Reads: 51, Excitation λ: 335 nm, Emission λ: 495 nm, cutoff: 475 nm, Automix: off, Calibrate: once, PMT: high, Reads/well: 6, Vmax pts: 21 or 28/51 depending on length of linearity of reaction
IC50s are determined using a four parameter curve fit equation, and converted to Ki's using the following Km's: Full-length E. coli NS3−2.03 μM Full-length BV NS3−1.74 μM
where Ki=IC50/(1+[S]/Km))

T1 sequence (P27958 1027-1657): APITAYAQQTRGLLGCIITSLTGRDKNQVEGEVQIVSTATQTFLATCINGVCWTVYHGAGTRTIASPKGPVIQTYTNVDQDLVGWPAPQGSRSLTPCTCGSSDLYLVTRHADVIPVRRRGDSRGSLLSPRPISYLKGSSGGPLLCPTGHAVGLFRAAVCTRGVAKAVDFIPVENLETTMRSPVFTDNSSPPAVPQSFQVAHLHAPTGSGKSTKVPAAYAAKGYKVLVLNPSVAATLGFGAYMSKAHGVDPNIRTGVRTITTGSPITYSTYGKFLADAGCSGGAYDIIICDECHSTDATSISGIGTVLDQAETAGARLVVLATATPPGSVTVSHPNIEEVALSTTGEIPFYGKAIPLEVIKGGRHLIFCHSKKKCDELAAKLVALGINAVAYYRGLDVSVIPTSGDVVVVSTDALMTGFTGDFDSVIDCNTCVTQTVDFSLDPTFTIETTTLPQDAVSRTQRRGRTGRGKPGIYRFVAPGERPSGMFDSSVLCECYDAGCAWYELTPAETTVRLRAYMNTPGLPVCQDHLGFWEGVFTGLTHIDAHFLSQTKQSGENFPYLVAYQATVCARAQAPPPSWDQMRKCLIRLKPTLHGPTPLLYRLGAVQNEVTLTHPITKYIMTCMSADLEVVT

Broadly, the IC50 is the midpoint of a concentration-inhibition curve. For `C=C[C@@H]1C[C@]1(NC(=O)C1CN(C(=O)OC(C)(C)C)Cc2c[nH]nc21)C(=O)NS(=O)(=O)C1CC1` (mixture of isomers) [Compound 104, Tert-butyl 7-((1R,2S)-1-(cyclopropylsulfonylcarbamoyl)-2-vinylcyclopropylcarbamoyl)-6,7-dihydro-2H-pyrazolo[4,3-c]pyridine-5(4H)-carboxylate], the IC50 was in the range of 10 to 50 µM.

In the case of `O=C(O)CNC(=O)C1CCCc2c[nH]nc21` (stereo not shown) [Compound 101], the IC50 was 10 to 50 µM.

For `O=C(CNC(=O)C1CNCc2c[nH]nc21)NS(=O)(=O)C1CC1` (stereo not shown) [Compound 109], the IC50 lay within 10 to 50 µM. In the case of `C=C[C@@H]1C[C@]1(NC(=O)C1CNCc2c[nH]nc21)C(=O)NS(=O)(=O)C1CC1` (stereo partly drawn) [Compound 111, N-((1R,2S)-1-(cyclopropylsulfonylcarbamoyl)-2-vinylcyclopropyl)-4,5,6,7-tetrahydro-2H-pyrazolo[4,3-c]pyridine-7-carboxamide hydrochloride], the IC50 lay within 10 to 50 µM.

Regarding `C=C[C@@H]1C[C@]1(NC(=O)[C@@H]1C[C@@H](OC(=O)N2Cc3cccc(F)c3C2)CN1C(=O)CNC(=O)OC(C)(C)C)C(=O)NS(=O)(=O)C1CC1` [Compound 91], the IC50 lay in the range of 0.1 to 1 µM. Turning to `O=C(O)C1CNCc2c[nH]nc21` (stereo not shown) [Compound 110], the half-maximal inhibitory concentration (IC50) fell in the range of 1 to 10 µM. Turning to `O=C(NC1(C(=O)NS(=O)(=O)C2CC2)CCC1)C1CNCc2c[nH]nc21` (stereo not shown) [Compound 112], the IC50 fell in the range of 1 to 10 µM. Take `C=C[C@@H]1C[C@]1(NC(=O)[C@@H]1C[C@@H](OC(=O)N2Cc3cccc(F)c3C2)CN1C(C)=O)C(=O)NS(=O)(=O)C1CC1` [Compound 90, (3R,5S)-1-acetyl-5-((1R,2S)-1-(cyclopropylsulfonylcarbamoyl)-2-vinylcyclopropylcarbamoyl)pyrrolidin-3-yl 4-fluoroisoindoline-2 carboxylate]: the IC50 was less than 0.1 µM. For `O=C(CNC(=O)C1CCCc2c[nH]nc21)NS(=O)(=O)C1CC1` (stereo not shown) [Compound 102] the value was 1 to 10 µM; for `C=C[C@@H]1C[C@]1(NC(=O)C1CN(C(=O)Cc2ccccc2)Cc2c[nH]nc21)C(=O)NS(=O)(=O)C1CC1` (stereo partly drawn) [Compound 103, N-((1R,2S)-1-(cyclopropylsulfonylcarbamoyl)-2-vinylcyclopropyl)-5-(2-phenylacetyl)-4,5,6,7-tetrahydro-2H-pyrazolo[4,3-c]pyridine-7-carboxamide], 1 to 10 µM; for `O=C(O)CNC(=O)C1CN(C(=O)Cc2ccccc2)Cc2c[nH]nc21` (stereo not shown) [Compound 108], 1 to 10 µM. For the molecule `CCC[C@H](NC(=O)C1CNCc2c[nH]nc21)C(=O)NS(=O)(=O)C1CC1` (stereo partly shown) [Compound 107], the IC50 fell in the range of 10 to 50 µM. To `CCC[C@H](NC(=O)C1CN(C(=O)Cc2ccccc2)Cc2c[nH]nc21)C(=O)NS(=O)(=O)C1CC1` (stereo partly shown) [Compound 106] belongs 10 to 50 µM.
